One data set deals with T1, human OCT2 (Homo sapiens, UniProt O15244).
T1 sequence (O15244 1-555): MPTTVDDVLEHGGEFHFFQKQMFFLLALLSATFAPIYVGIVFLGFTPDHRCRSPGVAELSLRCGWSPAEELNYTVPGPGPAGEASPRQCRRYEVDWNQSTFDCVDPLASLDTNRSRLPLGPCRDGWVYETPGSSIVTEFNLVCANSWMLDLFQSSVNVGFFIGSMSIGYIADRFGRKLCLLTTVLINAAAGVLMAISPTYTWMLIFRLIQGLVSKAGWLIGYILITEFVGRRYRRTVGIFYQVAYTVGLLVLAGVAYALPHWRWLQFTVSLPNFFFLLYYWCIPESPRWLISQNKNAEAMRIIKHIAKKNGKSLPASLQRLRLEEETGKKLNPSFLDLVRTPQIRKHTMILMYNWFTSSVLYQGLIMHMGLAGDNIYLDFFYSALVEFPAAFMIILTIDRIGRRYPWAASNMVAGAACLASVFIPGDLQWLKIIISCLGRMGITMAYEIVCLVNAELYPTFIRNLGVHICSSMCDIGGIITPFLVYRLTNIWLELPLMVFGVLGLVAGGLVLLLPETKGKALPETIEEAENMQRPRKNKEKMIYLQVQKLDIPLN
As to conditions: 10 min, 100 μM.

The next data set addresses T2, human PEPT2 (Homo sapiens, UniProt Q16348).
T2 sequence (Q16348 1-729): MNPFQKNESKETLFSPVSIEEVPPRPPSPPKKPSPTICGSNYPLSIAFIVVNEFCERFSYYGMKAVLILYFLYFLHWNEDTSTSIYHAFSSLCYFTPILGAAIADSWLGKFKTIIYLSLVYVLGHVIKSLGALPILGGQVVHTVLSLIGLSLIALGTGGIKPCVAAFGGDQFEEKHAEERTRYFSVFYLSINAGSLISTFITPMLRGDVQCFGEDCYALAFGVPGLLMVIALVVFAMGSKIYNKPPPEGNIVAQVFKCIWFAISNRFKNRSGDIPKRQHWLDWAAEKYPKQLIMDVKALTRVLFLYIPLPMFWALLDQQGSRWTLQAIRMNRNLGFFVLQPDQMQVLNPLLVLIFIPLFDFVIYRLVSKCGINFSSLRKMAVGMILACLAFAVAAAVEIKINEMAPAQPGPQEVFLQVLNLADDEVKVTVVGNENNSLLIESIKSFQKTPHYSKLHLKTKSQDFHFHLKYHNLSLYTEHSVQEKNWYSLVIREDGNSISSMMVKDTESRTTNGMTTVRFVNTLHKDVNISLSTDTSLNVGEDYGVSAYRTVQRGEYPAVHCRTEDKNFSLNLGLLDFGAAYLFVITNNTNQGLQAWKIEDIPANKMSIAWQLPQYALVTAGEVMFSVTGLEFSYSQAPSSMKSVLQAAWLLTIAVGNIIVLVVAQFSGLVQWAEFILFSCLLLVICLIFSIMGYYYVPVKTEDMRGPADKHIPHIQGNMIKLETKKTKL
As to conditions: 10 min, 100 μM, pH 6.

The next data set concerns the target T3, human PEPT1 (Homo sapiens, UniProt P46059).
T3 sequence (P46059 1-708): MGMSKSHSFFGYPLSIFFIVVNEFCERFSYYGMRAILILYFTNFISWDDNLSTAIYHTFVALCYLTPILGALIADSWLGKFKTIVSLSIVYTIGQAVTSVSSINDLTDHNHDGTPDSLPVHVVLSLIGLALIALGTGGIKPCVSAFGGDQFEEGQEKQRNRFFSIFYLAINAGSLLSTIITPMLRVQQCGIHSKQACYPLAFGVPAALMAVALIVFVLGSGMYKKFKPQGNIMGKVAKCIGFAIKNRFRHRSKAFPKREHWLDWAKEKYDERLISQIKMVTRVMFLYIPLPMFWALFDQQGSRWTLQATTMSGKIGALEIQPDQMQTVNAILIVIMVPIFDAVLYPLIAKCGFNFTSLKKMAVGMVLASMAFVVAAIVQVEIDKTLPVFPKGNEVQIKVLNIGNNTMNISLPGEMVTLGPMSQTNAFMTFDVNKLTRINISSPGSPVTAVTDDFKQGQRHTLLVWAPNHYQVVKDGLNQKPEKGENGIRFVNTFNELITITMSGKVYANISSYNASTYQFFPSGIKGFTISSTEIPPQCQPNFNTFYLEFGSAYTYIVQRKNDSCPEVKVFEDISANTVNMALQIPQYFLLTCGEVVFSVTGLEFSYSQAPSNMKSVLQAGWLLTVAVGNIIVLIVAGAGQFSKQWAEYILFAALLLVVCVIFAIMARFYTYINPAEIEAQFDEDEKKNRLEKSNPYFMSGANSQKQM
As to conditions: 10 min, 100 μM, pH 6.

The next data set has as its target T4, human OATP2B1 (Homo sapiens, UniProt O94956).
T4 sequence (O94956 1-709): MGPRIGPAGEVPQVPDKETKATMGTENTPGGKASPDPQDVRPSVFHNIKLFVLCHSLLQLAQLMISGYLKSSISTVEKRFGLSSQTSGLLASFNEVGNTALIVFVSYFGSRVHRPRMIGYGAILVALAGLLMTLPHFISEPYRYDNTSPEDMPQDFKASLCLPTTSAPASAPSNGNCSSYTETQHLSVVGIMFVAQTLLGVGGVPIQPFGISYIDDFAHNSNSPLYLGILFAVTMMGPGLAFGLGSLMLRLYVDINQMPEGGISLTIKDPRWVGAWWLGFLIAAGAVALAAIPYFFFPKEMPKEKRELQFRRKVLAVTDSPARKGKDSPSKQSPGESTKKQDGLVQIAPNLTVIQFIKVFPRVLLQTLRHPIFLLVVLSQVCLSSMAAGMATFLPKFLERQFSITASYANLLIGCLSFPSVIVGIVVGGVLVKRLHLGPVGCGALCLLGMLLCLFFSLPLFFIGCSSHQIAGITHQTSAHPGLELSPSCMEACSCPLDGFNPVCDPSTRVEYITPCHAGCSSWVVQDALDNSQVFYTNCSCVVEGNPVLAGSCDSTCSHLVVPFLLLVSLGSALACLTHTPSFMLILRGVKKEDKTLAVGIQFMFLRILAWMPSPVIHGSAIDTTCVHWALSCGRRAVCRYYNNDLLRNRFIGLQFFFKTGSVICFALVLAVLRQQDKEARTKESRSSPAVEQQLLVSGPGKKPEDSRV
As to conditions: 10 min, 100 μM.

Take `O=C(/C=C/c1ccc(O)c(O)c1)O[C@H](Cc1ccc(O)c(O)c1)C(=O)O` [Rosmarinic acid, rosmarinic acid]: the “TransportTC/TransportMC ratio (net transport ratio)” value on human OCT2 is recorded as 0.85 ± 0.29; on human PEPT2, 1.12 ± 0.22; at human PEPT1, 1.42 ± 0.53; at human OATP2B1, 1.69 ± 0.71.
On the same counts, the results for `O=C(/C=C/c1ccc(O)c(O)c1/C=C/c1ccc(O)c(O)c1)O[C@H](Cc1ccc(O)c(O)c1)C(=O)O` [Salvianolic acid A, salvianolic acid A] are 0.93 ± 0.32, 1.14 ± 0.31, 1.45 ± 0.27 and 2.45 ± 0.34.

For the origin of these results see paper PMC9127186, “Molecular Basis Underlying Hepatobiliary and Renal Excretion of Phenolic Acids of Salvia miltiorrhiza Roots (Danshen)” (Frontiers in Pharmacology, 2022).
